# Results reported in PubChem BioAssay (NCI).
#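 All cell lines were grown in 96-well plates and treated with compound for 48 hours. TGI is the concentration that stops growth completely.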
# Assays:
# Test in all cases: DTP human tumour cell line panel, 48 h
# HT29 colon = system: HT29 colon
# SF-268 CNS = system: SF-268 CNS
# K-562 leukemia = system: K-562 leukemia
# TK-10 renal = system: TK-10 renal
# CAKI-1 renal = system: CAKI-1 renal
# SNB-75 CNS = system: SNB-75 CNS
# HL-60(TB) leukemia = system: HL-60(TB) leukemia
# OVCAR-5 ovarian = system: OVCAR-5 ovarian
# NCI-H23 lung = system: NCI-H23 lung
# HOP-62 NSCLC = system: HOP-62 NSCLC
# UACC-257 melanoma = system: UACC-257 melanoma
# HCC-2998 colon = system: HCC-2998 colon
# KM20L2 colon = system: KM20L2 colon
# KM12 colon = system: KM12 colon
# U251 CNS = system: U251 CNS
# XF 498 CNS = system: XF 498 CNS
# MALME-3M melanoma = system: MALME-3M melanoma
# SR leukemia = system: SR leukemia
# UACC-62 melanoma = system: UACC-62 melanoma
# HOP-92 NSCLC = system: HOP-92 NSCLC
# LOX IMVI melanoma = system: LOX IMVI melanoma
# SK-OV-3 ovarian = system: SK-OV-3 ovarian
# EKVX NSCLC = system: EKVX NSCLC
# HCT-15 colon = system: HCT-15 colon
# NCI-H226 lung = system: NCI-H226 lung
# SNB-19 CNS = system: SNB-19 CNS
# UO-31 renal = system: UO-31 renal
# HOP-18 NSCLC = system: HOP-18 NSCLC
# SK-MEL-5 melanoma = system: SK-MEL-5 melanoma
# OVCAR-8 ovarian = system: OVCAR-8 ovarian
# SF-295 CNS = system: SF-295 CNS
# OVCAR-3 ovarian = system: OVCAR-3 ovarian
# DLD-1 colon = system: DLD-1 colon
# RXF-631 renal = system: RXF-631 renal
# SNB-78 CNS = system: SNB-78 CNS
# 786-0 renal = system: 786-0 renal
# DMS 273 small cell lung = system: DMS 273 small cell lung
# CCRF-CEM leukemia = system: CCRF-CEM leukemia
# NCI-H460 lung = system: NCI-H460 lung
# M14 melanoma = system: M14 melanoma
# SK-MEL-2 melanoma = system: SK-MEL-2 melanoma
# SN12C renal = system: SN12C renal
# MOLT-4 leukemia = system: MOLT-4 leukemia
# IGROV1 ovarian = system: IGROV1 ovarian
# OVCAR-4 ovarian = system: OVCAR-4 ovarian
# A498 renal = system: A498 renal
# LXFL 529 NSCLC = system: LXFL 529 NSCLC
# SF-539 CNS = system: SF-539 CNS
# M19-MEL melanoma = system: M19-MEL melanoma
# HCT-116 colon = system: HCT-116 colon
# RPMI-8226 leukemia = system: RPMI-8226 leukemia
# SK-MEL-28 melanoma = system: SK-MEL-28 melanoma
# COLO 205 colon = system: COLO 205 colon
# SW-620 colon = system: SW-620 colon
# A549 NSCLC = system: A549 NSCLC
# NCI-H522 lung = system: NCI-H522 lung
# ACHN renal = system: ACHN renal
# DMS 114 small cell lung = system: DMS 114 small cell lung
structure (smiles),measurement,setting,value
NC(=O)COC(=O)c1c(Cl)nc2sccn12,TGI,HT29 colon,> 100 µM
same,TGI,SF-268 CNS,> 100 µM
same,TGI,K-562 leukemia,> 100 µM
same,TGI,TK-10 renal,> 100 µM
same,TGI,CAKI-1 renal,> 100 µM
same,TGI,SNB-75 CNS,> 100 µM
same,TGI,HL-60(TB) leukemia,> 81.8 µM
same,TGI,OVCAR-5 ovarian,> 100 µM
same,TGI,NCI-H23 lung,> 100 µM
same,TGI,HOP-62 NSCLC,> 100 µM
same,TGI,UACC-257 melanoma,> 100 µM
same,TGI,HCC-2998 colon,> 100 µM
same,TGI,KM20L2 colon,> 100 µM
same,TGI,KM12 colon,> 100 µM
same,TGI,U251 CNS,> 100 µM
same,TGI,XF 498 CNS,> 100 µM
same,TGI,MALME-3M melanoma,> 100 µM
same,TGI,SR leukemia,85.4 µM
same,TGI,UACC-62 melanoma,> 100 µM
same,TGI,HOP-92 NSCLC,> 100 µM
same,TGI,LOX IMVI melanoma,> 100 µM
same,TGI,SK-OV-3 ovarian,> 100 µM
same,TGI,EKVX NSCLC,> 100 µM
same,TGI,HCT-15 colon,> 55.1 µM
same,TGI,NCI-H226 lung,> 100 µM
same,TGI,SNB-19 CNS,> 100 µM
same,TGI,UO-31 renal,> 100 µM
same,TGI,HOP-18 NSCLC,> 100 µM
same,TGI,SK-MEL-5 melanoma,> 100 µM
same,TGI,OVCAR-8 ovarian,> 100 µM
same,TGI,SF-295 CNS,> 100 µM
same,TGI,OVCAR-3 ovarian,> 62.6 µM
same,TGI,DLD-1 colon,> 100 µM
same,TGI,RXF-631 renal,> 100 µM
same,TGI,SNB-78 CNS,> 100 µM
same,TGI,786-0 renal,36 µM
same,TGI,DMS 273 small cell lung,> 100 µM
same,TGI,CCRF-CEM leukemia,> 31.6 µM
same,TGI,NCI-H460 lung,> 100 µM
same,TGI,M14 melanoma,> 100 µM
same,TGI,SK-MEL-2 melanoma,> 100 µM
same,TGI,SN12C renal,> 100 µM
same,TGI,MOLT-4 leukemia,> 100 µM
same,TGI,IGROV1 ovarian,> 100 µM
same,TGI,OVCAR-4 ovarian,> 100 µM
same,TGI,A498 renal,> 100 µM
same,TGI,LXFL 529 NSCLC,> 100 µM
same,TGI,SF-539 CNS,> 100 µM
same,TGI,M19-MEL melanoma,> 100 µM
same,TGI,HCT-116 colon,> 31.6 µM
same,TGI,RPMI-8226 leukemia,> 66.4 µM
same,TGI,SK-MEL-28 melanoma,> 100 µM
same,TGI,COLO 205 colon,> 100 µM
same,TGI,SW-620 colon,> 64.7 µM
same,TGI,A549 NSCLC,> 100 µM
same,TGI,NCI-H522 lung,> 100 µM
same,TGI,ACHN renal,> 100 µM
same,TGI,DMS 114 small cell lung,> 83.8 µM
